Measured values: patent US20240208950A1, “COMPOSITIONS AND METHODS FOR TREATMENT OF CERVICAL AND OVARIAN CANCER” (SOUTH DAKOTA BOARD OF REGENTS, priority 2021, published 2024)

Key:
SiHa cells = test: Cell proliferation assay (MTS), SiHa; type: cell-based, human; conditions: 1-20 μM, 24 hours
Protocol: The effect of Br-ORM on CaSki and SiHa cells proliferation was performed using the MTS assay. Briefly, cells were seeded at a density of 5×10^3 cells per well in 96 well plate and allowed to stand overnight at 37° C. and 5% CO2 incubator. Next day, cells were treated with different concentrations of Br-ORM (1, 5, 10 and 20 μM). DMSO was used as a vehicle for the treatment of control cells. Twenty four hours post-treatment, 20 μL of MTS reagent (5 mg/mL) was added in each well and further incubated the plate for 2 hours in a CO2 incubator. Absorbance was taken after 2 hours at […] (SpectraMax M2 spectrophotometer, Molecular Devices, Sunnyvale, CA, USA). The experiment was performed in triplicates. Results were represented as percent viability with respect to the control group. […]
FIG. 13. […] Cell viability was assessed by MTS assay. […] Bar graphs indicating quantification of colony formation in CaSki (i), and SiHa (ii) cells of cervical cancer with respect to vehicle control. […] Briefly, cervical cancer cells were treated with Br-ORM (10 μM) for 24 hours and the apoptosis inducing effect of Br-ORM was analyzed by Annexin V staining. […] The equal loading of protein in each lane was determined by probing the blots with β-actin antibody (FIG. 13F). […] Br-ORM arrests cell cycle in G1/S phase as determined by flow cytometry. […]

β-catenin in CaSki cells = test: β-catenin degradation with cyclohexamide (western blot, pulse chase), CaSki; type: cell-based, human; conditions: ORM-Br
Protocol: A western blot analysis was conducted to determine the effect of ORM-Br on β-catenin degradation. […] Protein lysates were prepared and subjected to western blot analysis to ascertain the levels of protein of β-catenin in cyclohexamide-treated cells (FIG. 3A) and in ORM-Br and cyclohexamide-treated cells (FIG. 3B).

## COc1ccc2c(c1)OC(C)(C)C(c1ccc(Br)cc1)C2c1ccc(OCCN2CCCC2)cc1 (stereo not drawn) [ORM-Br]
SiHa cells
  cell viability / growth: inhibits the growth
SiHa cells; listed as Br-ORM
  cell viability / growth: dose dependently inhibited the cell viability
β-catenin in CaSki cells
  protein levels of β-catenin relative to cyclohexamide treatment: significant decrease in protein levels of β-catenin
